The text below walks through data of US10787447B2, “Pharmaceutical compounds” (Heptares Therapeutics Limited, priority 2018, dated 2020).

What all share (assay type): cell-based
Experiment [1] addresses T1, human muscarinic M1 receptor (Homo sapiens, UniProt P11229).
T1 sequence (P11229 1-460): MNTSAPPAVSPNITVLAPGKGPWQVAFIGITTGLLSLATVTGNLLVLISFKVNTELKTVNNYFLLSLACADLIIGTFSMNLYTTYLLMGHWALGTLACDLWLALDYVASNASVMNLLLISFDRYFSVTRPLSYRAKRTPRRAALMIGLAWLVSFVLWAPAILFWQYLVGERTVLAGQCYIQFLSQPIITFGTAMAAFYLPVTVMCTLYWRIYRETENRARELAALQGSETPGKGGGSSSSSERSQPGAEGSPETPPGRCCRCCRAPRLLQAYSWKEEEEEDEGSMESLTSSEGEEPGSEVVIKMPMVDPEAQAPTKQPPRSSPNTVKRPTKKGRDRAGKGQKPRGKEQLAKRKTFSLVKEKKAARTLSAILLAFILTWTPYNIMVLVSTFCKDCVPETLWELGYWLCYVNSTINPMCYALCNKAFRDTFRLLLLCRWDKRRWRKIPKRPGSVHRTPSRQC
Nature of the experiment: Alphascreen Surefire phospho-ERK1/2 functional assay, M1. The note with it: for EC50: phospho-ERK1/2. In short, it runs like this:
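Stably transfected CHO cells, serum-starved overnight, then exposed to agonist for 5 min at 37 °C. Cells lysed and phospho-ERK1/2 measured by AlphaScreen SureFire.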

The target in experiment [2] is T2, human muscarinic M3 receptor (Homo sapiens, UniProt P20309).
T2 construct: expressed in transfected cells
Nature of the experiment: Alphascreen Surefire phospho-ERK1/2 functional assay, M3. The note with it: for % Emax cf. ACh, M3 / Emax: Emax relative to ACh; for EC50: phospho-ERK1/2; for Emax: CHO, read-out: % Emax cf. ACh, M3, CHO cells stably expressing human M3. As for the experimental part:
(§1) ERK1/2 phosphorylation is a downstream consequence of both Gq/11 and Gi/o protein coupled receptor activation, making it highly suitable for the assessment of M1, M3 (Gq/11 coupled) and M2, M4 receptors (Gi/o coupled), rather than using different assay formats for different receptor subtypes. CHO cells stably expressing the human muscarinic M1, M2, M3 or M4 receptor were plated (25K/well) onto 96-well tissue culture plates in MEM-alpha+10% dialysed FBS. Once adhered, cells were serum-starved overnight. Agonist stimulation was performed by the addition of 5 μL agonist to the cells for 5 min (37° C.). Media was removed and 50 μL of lysis buffer added. After 15 min, a 4 μL sample was transferred to 384-well plate and 7 μL of detection mixture added.
(§2) Isomer assignment (Isomer 1, Isomer 2, etc.) is based on the retention time of the compound using the separation technique that was performed in the final purification step. By implication, this could be reversed phase HPLC, chiral HPLC or chiral SFC retention time, and this will vary from compound to compound.

The target of experiment [3] is T3, human muscarinic M4 receptor (Homo sapiens, UniProt P08173).
T3 sequence (P08173 1-479): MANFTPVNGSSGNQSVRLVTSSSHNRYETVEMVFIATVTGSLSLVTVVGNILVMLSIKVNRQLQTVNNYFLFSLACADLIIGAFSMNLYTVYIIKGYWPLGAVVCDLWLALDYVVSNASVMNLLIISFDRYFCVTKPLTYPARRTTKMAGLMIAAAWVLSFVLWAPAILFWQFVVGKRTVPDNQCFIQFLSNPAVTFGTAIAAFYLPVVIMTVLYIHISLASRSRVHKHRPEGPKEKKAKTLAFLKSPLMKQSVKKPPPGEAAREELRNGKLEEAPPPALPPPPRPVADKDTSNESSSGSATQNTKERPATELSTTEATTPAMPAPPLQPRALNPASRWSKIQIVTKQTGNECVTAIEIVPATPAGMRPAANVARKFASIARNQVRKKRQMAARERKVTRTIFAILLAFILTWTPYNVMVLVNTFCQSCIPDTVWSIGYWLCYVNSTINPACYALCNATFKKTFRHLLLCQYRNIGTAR
Nature of the experiment: Alphascreen Surefire phospho-ERK1/2 functional assay, M4. The following applies: for % Emax cf. ACh, M4: Emax relative to ACh; for EC50: phospho-ERK1/2. In short, it runs like this:
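CHO cells stably expressing human M1, M2, M3 or M4 receptor, serum-starved overnight, then stimulated with agonist for 5 min at 37 °C. Cells lysed for 15 min and phospho-ERK1/2 detected in the lysate by AlphaScreen SureFire.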

The target of experiment [4] is T4, human muscarinic M2 receptor (Homo sapiens, UniProt P08172).
T4 sequence (P08172 1-466): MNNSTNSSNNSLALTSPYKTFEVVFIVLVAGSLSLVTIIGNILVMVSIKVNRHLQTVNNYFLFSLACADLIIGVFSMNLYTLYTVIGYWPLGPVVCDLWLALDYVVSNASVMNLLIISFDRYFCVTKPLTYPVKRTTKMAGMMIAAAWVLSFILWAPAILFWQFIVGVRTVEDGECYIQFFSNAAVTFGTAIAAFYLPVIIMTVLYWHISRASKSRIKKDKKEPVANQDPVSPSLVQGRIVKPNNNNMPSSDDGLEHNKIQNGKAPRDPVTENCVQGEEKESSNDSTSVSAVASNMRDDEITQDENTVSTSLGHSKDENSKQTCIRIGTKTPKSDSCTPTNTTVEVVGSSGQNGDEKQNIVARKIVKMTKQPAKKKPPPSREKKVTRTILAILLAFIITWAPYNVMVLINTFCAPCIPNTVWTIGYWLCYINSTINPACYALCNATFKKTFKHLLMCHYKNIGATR
Nature of the experiment: Alphascreen Surefire phospho-ERK1/2 functional assay, M2. The following applies: for % Emax cf. ACh, M2 / Emax: Emax relative to ACh; for EC50: phospho-ERK1/2; for Emax: CHO, read-out: % Emax cf. ACh, M2, CHO cells stably expressing human M2. As for the experimental part:
as §1, §2

Where [5] appears, read: pEC50 M1, CHO cells stably expressing human M1.
Setting [6] is: pEC50 M4, CHO cells stably expressing human M4.
Where [7] appears, read: pEC50 M2, CHO cells stably expressing human M2.
Setting [8] is: pEC50 M3, CHO cells stably expressing human M3.
[9] abbreviates: CHO cells stably expressing human M1, Emax relative to ACh.
Where [10] appears, read: CHO cells stably expressing human M4.

Where two headings read alike, the source gives them in different places.

T2 sequence (P20309 whole entry): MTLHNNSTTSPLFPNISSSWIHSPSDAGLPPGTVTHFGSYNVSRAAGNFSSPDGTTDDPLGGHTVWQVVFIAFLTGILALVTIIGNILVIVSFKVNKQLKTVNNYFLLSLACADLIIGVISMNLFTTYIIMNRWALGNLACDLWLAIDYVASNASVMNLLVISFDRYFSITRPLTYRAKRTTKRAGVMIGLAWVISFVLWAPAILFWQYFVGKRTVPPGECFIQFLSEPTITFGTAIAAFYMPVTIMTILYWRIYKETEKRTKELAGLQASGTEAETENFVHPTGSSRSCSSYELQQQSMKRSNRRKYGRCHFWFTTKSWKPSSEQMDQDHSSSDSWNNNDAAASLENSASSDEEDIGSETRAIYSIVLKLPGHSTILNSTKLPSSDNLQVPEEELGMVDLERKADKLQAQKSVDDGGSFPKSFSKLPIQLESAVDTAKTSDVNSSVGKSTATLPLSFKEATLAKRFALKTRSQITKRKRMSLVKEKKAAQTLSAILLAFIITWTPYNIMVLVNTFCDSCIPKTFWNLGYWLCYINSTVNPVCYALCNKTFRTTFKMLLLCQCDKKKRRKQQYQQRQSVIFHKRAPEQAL

For the compound `CCOC(=O)N1C2COCC1CC(N1CCC(c3ccc[nH]c3=O)CC1)C2` (single isomer, unassigned) [Example 2-3 Isomer 2, Ethyl 7-[4-(2-oxo-1,2-dihydropyridin-3-yl)piperidin-1-yl]-3-oxa-9-azabicyclo[3.3.1]nonane-9-carboxylate], in experiment [1] (CHO cells stably expressing human M1, Emax relative to ACh, listed as 2-3 Isomer 2), the “% Emax cf. ACh, M1” value was found to be 34%. Besides, the EC50 in experiment [1] (setting [5]) is 174 nM; in experiment [3] (setting [6]), 11.5 nM; in experiment [4] (setting [7]) it was above 20000 nM. Also, the “% Emax cf. ACh, M3” value in experiment [2] (CHO cells stably expressing human M3) is on record as 5%. The “% Emax cf. ACh, M4” value in experiment [3] (CHO cells stably expressing human M4, listed as 2-3 Isomer 2) turned out to be 65%. The “% Emax cf. ACh, M2” value in experiment [4] (CHO cells stably expressing human M2, listed as 2-3 Isomer 2) is recorded as 10%.

For `CCOC(=O)N1C2COCC1CC(N1CCC(N3CC(F)(F)C[C@@H]3CO)CC1)C2` (single isomer, unassigned) [Example 4-1 Isomer 1], in experiment [1] (CHO cells stably expressing human M1, Emax relative to ACh, listed as 4-1 Isomer 1), the “% Emax cf. ACh, M1” value came to 108%. Moreover, the EC50 in experiment [1] (setting [5]) is 155 nM; in experiment [2] (setting [8]), above 20000 nM; in experiment [3] (setting [6]), 30.9 nM; in experiment [4] (setting [7]), 251 nM. For the same compound, the “% Emax cf. ACh, M3” value in experiment [2] (CHO cells stably expressing human M3, listed as 4-1 Isomer 1) was found to be 11%. Also, in experiment [3] (CHO cells stably expressing human M4, listed as 4-1 Isomer 1), the “% Emax cf. ACh, M4” value turned out to be 114%. Besides, the “% Emax cf. ACh, M2” value in experiment [4] (CHO cells stably expressing human M2, listed as 4-1 Isomer 1) came out at 87%.

In the case of `CCOC(=O)N1C2COCC1CC(N1CCC(N3CC(F)(F)C[C@@H]3CO)CC1)C2` (single isomer, unassigned) [Example 4-1 Isomer 2], the “% Emax cf. ACh, M1” value in experiment [1] (CHO cells stably expressing human M1, Emax relative to ACh, listed as 4-1 Isomer 2) came to 47%. For the same compound, the EC50 was 398 nM in experiment [1] (setting [5]), 100 nM in experiment [3] (setting [6]) and above 20000 nM in experiment [4] (setting [7]). For the same compound, the “% Emax cf. ACh, M3” value in experiment [2] (CHO cells stably expressing human M3, listed as 4-1 Isomer 2) is 4%. For the same compound, in experiment [3] (CHO cells stably expressing human M4, listed as 4-1 Isomer 2), the “% Emax cf. ACh, M4” value is on record as 59%. In addition, in experiment [4] (CHO cells stably expressing human M2, listed as 4-1 Isomer 2), the “% Emax cf. ACh, M2” value is on record as 17%.

As for `CCOC(=O)N1C2COCC1CC(N1CCC3(CC1)CC3)C2` (single isomer, unassigned) [Example 5-1 Isomer 1, Ethyl 7-(6-azaspiro[2.5]oct-6-yl)-3-oxa-9-azabicyclo[3.3.1]nonane-9-carboxylate], the Emax in experiment [1] (CHO, read-out: % Emax cf. ACh, M1, CHO cells stably expressing human M1, Emax relative to ACh) stood at 47%; in experiment [4], 8%. Moreover, the EC50 in experiment [1] (setting [5]) is 72.4 nM; in experiment [2] (setting [8]), above 20000 nM; in experiment [3] (setting [6]), above 20000 nM; in experiment [4] (setting [7]), above 20000 nM. For the same compound, the “% Emax cf. ACh, M3” value in experiment [2] (CHO cells stably expressing human M3, listed as 5-1 Isomer 1) is 0%. Further, the “% Emax cf. ACh, M4” value in experiment [3] (CHO cells stably expressing human M4, listed as 5-1 Isomer 1) is on record as 13%.

In the case of `CCOC(=O)N1C2COCC1CC(N1CCC3(CC1)CC3)C2` (single isomer, unassigned) [Example 5-1 Isomer 2, Ethyl 7-(6-azaspiro[2.5]oct-6-yl)-3-oxa-9-azabicyclo[3.3.1]nonane-9-carboxylate], the “% Emax cf. ACh, M1” value in experiment [1] (setting [9]) amounted to 66%. Besides, the EC50 in experiment [1] (setting [5]) was 141 nM; in experiment [3] (setting [6]) it was 33.9 nM. In experiment [2] (CHO cells stably expressing human M3, listed as 5-1 Isomer 2), the “% Emax cf. ACh, M3” value stood at 8%. Moreover, the “% Emax cf. ACh, M4” value in experiment [3] (CHO cells stably expressing human M4, listed as 5-1 Isomer 2) amounted to 41%. In addition, the “% Emax cf. ACh, M2” value in experiment [4] (CHO cells stably expressing human M2) is 13%.

Consider `CCOC(=O)N1C2COCC1CC(N1CCC3(CC1)CNC(=O)C3)C2` (single isomer, unassigned) [Example 5-2 Isomer 2, Ethyl 7-(3-oxo-2,8-diazaspiro[4.5]dec-8-yl)-3-oxa-9-azabicyclo[3.3.1]nonane-9-carboxylate], for which, in experiment [1] (CHO cells stably expressing human M1, Emax relative to ACh, listed as 5-2 Isomer 2), the “% Emax cf. ACh, M1” value came out at 61%. The EC50 in experiment [1] (setting [5]) was 43.7 nM; in experiment [2] (setting [8]), above 20000 nM; in experiment [3] (setting [6]), above 20000 nM; in experiment [4] (setting [7]), above 20000 nM. For the same compound, the Emax in experiment [2] is 5%; in experiment [4], 8%. In addition, in experiment [3] (setting [10]), the “% Emax cf. ACh, M4” value was found to be 18%.

Regarding `CCOC(=O)N1C2COCC1CC(N1CCC3(CC1)CNC(=O)O3)C2` (single isomer, unassigned) [Example 5-3 Isomer 2, Ethyl 7-(2-oxo-1-oxa-3,8-diazaspiro[4.5]dec-8-yl)-3-oxa-9-azabicyclo[3.3.1]nonane-9-carboxylate], the “% Emax cf. ACh, M1” value in experiment [1] (setting [9]) is reported as 73%. The EC50 in experiment [1] (CHO cells stably expressing human M1, read-out: pEC50 M1 (converted)) is 126 nM; in experiment [2] (CHO cells stably expressing human M3, read-out: pEC50 M3 (converted)), above 20000 nM; in experiment [3] (CHO cells stably expressing human M4, read-out: pEC50 M4 (converted)), above 20000 nM; in experiment [4] (CHO cells stably expressing human M2, read-out: pEC50 M2 (converted)), above 20000 nM. The Emax in experiment [2] is 5%; in experiment [4], 4%. Besides, in experiment [3] (setting [10]), the “% Emax cf. ACh, M4” value is 17%.

For the compound `CCOC(=O)N1C2COCC1CC(N1CCC3(CC1)OC(=O)NC3CC)C2` (single isomer, unassigned) [Example 5-4 Isomer 1a, Ethyl 7-(4-ethyl-2-oxo-1-oxa-3,8-diazaspiro[4.5]dec-8-yl)-3-oxa-9-azabicyclo[3.3.1]nonane-9-carboxylate], the “% Emax cf. ACh, M1” value in experiment [1] (CHO cells stably expressing human M1, Emax relative to ACh, listed as 5-4 Isomer 1a) worked out at 76%. Moreover, the EC50 in experiment [1] (setting [5]) is 1480 nM; in experiment [2] (setting [8]), above 20000 nM; in experiment [3] (setting [6]) it was 145 nM; in experiment [4] (setting [7]), above 20000 nM. In experiment [2], the Emax was 2%. For the same compound, in experiment [3] (CHO cells stably expressing human M4, listed as 5-4 Isomer 1a), the “% Emax cf. ACh, M4” value was 81%. Also, the “% Emax cf. ACh, M2” value in experiment [4] (CHO cells stably expressing human M2, listed as 5-4 Isomer 1a) was found to be 3%.
